The values that follow come from ChEMBL document CHEMBL3259766, “Design, synthesis and biological evaluation of benzylisoquinoline derivatives as multifunctional agents against Alzheimer's disease” (Bioorg Med Chem Lett, 2014).

Structures are written as SMILES.

Data set [1] concerns the target Acetylcholinesterase (Electrophorus electricus, UniProt O42275). Kind of data set: Inhibition of electric eel AChE using acetylthiocholine iodide as substrate preincubated with enzyme for 6 mins followed by substrate addition by Ellman's method. (In Ellman's method for cholinesterases, released thiocholine reacts with DTNB.)
Data set [2] concerns the target Cholinesterase (Equus caballus, UniProt P81908). As to the kind of experiment: Inhibition of BuChE in equine serum using S-butyrylthiocholine iodide as substrate preincubated with enzyme for 6 mins followed by substrate addition by Ellman's method.
The nature of data set [3]: Selectivity index, ratio of IC50 for BuChE in equine serum to IC50 for electric eel AChE.
In data set [4] the target is Acetylcholinesterase (Homo sapiens, UniProt P22303). As to the kind of experiment: Inhibition of AChE in human erythrocytes using acetylthiocholine iodide as substrate preincubated with enzyme for 20 mins followed by substrate addition by Ellman's method. In kind it is cell-based.
Acetylcholinesterase (Homo sapiens, UniProt P22303), sequence (P22303 whole entry): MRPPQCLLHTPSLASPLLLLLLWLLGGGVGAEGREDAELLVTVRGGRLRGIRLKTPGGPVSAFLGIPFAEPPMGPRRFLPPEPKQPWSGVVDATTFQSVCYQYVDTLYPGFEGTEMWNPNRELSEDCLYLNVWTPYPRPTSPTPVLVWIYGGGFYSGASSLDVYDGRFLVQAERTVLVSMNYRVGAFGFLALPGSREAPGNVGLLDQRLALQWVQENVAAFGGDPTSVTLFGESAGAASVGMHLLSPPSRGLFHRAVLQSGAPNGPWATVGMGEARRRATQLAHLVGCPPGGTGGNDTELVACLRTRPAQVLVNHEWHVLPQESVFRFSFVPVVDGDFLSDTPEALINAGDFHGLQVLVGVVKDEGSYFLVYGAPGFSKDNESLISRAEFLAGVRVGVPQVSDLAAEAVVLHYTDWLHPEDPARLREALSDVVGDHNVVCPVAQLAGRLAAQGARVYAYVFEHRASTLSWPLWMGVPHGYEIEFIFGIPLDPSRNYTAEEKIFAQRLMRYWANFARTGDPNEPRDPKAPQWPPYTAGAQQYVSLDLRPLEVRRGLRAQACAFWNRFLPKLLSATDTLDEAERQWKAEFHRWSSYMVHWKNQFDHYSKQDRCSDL
In data set [5] the target is Cholinesterase (Homo sapiens, UniProt P06276). As to the kind of experiment: Inhibition of BuChE in human serum using S-butyrylthiocholine iodide as substrate preincubated with enzyme for 20 mins followed by substrate addition by Ellman's method.
Cholinesterase (Homo sapiens, UniProt P06276), sequence (P06276 whole entry): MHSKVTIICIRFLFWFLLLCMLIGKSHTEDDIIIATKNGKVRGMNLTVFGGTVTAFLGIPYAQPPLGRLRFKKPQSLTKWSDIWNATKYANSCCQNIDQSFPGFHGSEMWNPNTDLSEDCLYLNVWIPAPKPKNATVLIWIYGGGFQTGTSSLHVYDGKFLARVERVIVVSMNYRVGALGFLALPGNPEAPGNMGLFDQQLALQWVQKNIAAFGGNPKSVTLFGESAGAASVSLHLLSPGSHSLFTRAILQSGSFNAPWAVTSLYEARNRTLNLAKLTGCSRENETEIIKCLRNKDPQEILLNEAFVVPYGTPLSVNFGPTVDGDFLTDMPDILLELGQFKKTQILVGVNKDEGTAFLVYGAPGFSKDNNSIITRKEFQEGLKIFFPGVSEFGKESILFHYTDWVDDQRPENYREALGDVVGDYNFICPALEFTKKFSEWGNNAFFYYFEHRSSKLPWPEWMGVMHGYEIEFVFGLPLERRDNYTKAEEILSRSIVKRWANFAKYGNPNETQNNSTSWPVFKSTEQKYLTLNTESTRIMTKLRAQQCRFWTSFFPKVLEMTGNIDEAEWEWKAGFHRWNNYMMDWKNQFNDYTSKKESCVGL
A further data set is filed under the species Homo sapiens. Kind of data set: Selectivity index, ratio of IC50 for BuChE in human serum to IC50 for AChE in human erythorcytes. The format is cell-based.
In data set [6] the target is Amyloid-beta precursor protein (Homo sapiens) (UniProt P05067). As to the kind of experiment: Inhibition of amyloid beta (1 to 42) (unknown origin) self-aggregation at 20 uM after 46 to 48 hrs by thioflavin T based fluorometric assay.
Amyloid-beta precursor protein (Homo sapiens), sequence (P05067 whole entry): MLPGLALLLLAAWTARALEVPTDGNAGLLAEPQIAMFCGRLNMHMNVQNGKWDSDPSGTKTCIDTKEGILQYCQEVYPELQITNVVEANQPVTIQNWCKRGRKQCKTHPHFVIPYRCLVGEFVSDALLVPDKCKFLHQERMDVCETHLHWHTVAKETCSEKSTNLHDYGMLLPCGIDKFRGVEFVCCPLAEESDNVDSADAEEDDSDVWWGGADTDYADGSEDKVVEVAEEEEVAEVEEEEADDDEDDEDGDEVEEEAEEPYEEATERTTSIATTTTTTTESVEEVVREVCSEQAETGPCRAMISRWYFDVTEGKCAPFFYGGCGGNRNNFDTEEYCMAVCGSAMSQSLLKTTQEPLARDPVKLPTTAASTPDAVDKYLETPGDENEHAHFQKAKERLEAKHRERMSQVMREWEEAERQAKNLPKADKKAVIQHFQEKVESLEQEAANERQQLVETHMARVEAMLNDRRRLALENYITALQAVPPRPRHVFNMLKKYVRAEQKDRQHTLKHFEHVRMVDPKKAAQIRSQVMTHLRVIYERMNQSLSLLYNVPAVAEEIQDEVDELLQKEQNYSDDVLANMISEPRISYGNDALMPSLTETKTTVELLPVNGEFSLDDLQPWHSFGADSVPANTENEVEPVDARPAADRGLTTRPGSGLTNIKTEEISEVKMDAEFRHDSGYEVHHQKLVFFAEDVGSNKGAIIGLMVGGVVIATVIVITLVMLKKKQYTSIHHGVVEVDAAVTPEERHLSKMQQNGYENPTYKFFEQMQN
Data set [7] is described as follows: Cytotoxicity against human SH-SY5Y cells assessed as cell viability at 0.1 uM after 24 hrs by MTT assay. In kind it is cell-based. As to conditions: read-out: Activity. In general terms: Tetrazolium dyes change colour on reduction, which living cells bring about.
Data set [8] in a line: Cytotoxicity against human SH-SY5Y cells assessed as cell viability at 0.5 uM after 24 hrs by MTT assay. Conditions: read-out: Activity. In kind it is cell-based.
The nature of data set [9]: Cytotoxicity against human SH-SY5Y cells assessed as cell viability at 1 uM after 24 hrs by MTT assay. The format is cell-based. As to conditions: read-out: Activity.
Data set [10] in a line: Cytotoxicity against human SH-SY5Y cells assessed as cell viability at 2 uM after 24 hrs by MTT assay. Conditions: read-out: Activity. The format is cell-based.
Data set [11] is described as follows: Cytotoxicity against human SH-SY5Y cells assessed as cell viability at 5 uM after 24 hrs by MTT assay. The format is cell-based. Conditions: read-out: Activity.
Data set [12] in a line: Cytotoxicity against human SH-SY5Y cells assessed as cell viability at 10 uM after 24 hrs by MTT assay. In kind it is cell-based. As to conditions: read-out: Activity.

Acetylcholinesterase (Electrophorus electricus, UniProt O42275), sequence (O42275 whole entry): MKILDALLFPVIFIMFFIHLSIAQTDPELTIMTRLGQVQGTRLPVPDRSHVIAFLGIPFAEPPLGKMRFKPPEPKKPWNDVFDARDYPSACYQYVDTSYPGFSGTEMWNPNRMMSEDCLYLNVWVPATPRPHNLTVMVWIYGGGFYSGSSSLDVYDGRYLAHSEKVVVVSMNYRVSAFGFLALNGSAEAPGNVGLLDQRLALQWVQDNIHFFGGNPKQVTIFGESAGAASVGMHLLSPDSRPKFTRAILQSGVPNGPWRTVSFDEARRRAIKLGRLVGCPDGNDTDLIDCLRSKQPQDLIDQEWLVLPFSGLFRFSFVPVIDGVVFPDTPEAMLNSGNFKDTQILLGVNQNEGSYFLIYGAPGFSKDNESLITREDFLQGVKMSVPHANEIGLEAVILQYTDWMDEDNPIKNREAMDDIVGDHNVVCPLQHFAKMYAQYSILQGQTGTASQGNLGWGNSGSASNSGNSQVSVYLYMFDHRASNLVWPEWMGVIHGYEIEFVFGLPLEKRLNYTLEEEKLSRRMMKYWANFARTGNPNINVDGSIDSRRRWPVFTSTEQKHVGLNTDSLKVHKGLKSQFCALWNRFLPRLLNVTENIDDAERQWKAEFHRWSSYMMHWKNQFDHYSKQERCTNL
Cholinesterase (Equus caballus, UniProt P81908), sequence (P81908 whole entry): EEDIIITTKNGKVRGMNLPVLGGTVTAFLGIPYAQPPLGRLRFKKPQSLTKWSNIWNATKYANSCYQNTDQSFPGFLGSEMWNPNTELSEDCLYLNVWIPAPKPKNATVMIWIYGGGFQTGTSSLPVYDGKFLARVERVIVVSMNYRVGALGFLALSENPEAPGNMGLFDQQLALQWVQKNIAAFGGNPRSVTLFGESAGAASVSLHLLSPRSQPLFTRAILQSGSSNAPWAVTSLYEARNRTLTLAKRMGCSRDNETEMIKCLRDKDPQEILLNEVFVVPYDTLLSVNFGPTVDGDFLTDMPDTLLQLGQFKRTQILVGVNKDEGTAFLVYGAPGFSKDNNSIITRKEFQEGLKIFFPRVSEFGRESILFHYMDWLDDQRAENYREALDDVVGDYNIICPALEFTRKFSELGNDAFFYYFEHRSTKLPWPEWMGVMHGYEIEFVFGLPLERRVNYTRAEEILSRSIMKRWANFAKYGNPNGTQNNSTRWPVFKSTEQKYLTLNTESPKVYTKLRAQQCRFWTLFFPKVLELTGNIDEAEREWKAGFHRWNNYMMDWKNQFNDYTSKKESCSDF

As to `CCN(CC)CCCCCCOc1ccc(CC2NCCc3cc(OC)c(OC)cc32)cc1` (configuration not stated), the IC50 was determined as 2.28 µM against Acetylcholinesterase [1], 4.95 µM on Cholinesterase [2], 4.99 µM against Acetylcholinesterase [4] and 16.7 µM against Cholinesterase [5]. The Ratio IC50 is 2.17 in [3] and 3.35 in the data set listed under Homo sapiens. In data set [6], this molecule had an inhibition of 56.4%.
Consider `COc1cc2c(cc1OC)C(Cc1ccc(OCCCCCCN3CCC(c4ccccc4)CC3)cc1)NCC2` (configuration not stated), for which the IC50 against Acetylcholinesterase [1] was determined as 6.69 µM; at Cholinesterase [2], 7.99 µM; at Acetylcholinesterase [4], 9.33 µM; against Cholinesterase [5] it was 9.29 µM. In addition, the Ratio IC50 in [3] is 1.19. Also, the inhibition in data set [6] was 61.2%.
Take `CCCN(CCC)CCCCCCOc1ccc(CC2NCCc3cc(OC)c(OC)cc32)cc1` (configuration not stated): the 50% inhibitory concentration (IC50) at Acetylcholinesterase [1] came to 3.01 µM; on Cholinesterase [2], 4.32 µM; against Acetylcholinesterase [4], 3.46 µM; at Cholinesterase [5], 11.2 µM. Besides, the Ratio IC50 in data set [3] worked out at 1.44; in the data set listed under Homo sapiens, 3.23. Also, in data set [6], the inhibition came out at 51.2%.
For the molecule `COc1cc2c(cc1OC)C(Cc1ccc(OCCCCCCN3CCCCC3C)cc1)NCC2` (configuration not stated), the IC50 against Acetylcholinesterase [1] worked out at 0.95 µM; on Cholinesterase [2], 3.13 µM; at Acetylcholinesterase [4], 2.2 µM; against Cholinesterase [5], 5.83 µM. The Ratio IC50 worked out at 3.29 in data set [3] and 1.49 in the data set listed under Homo sapiens. In addition, the inhibition in data set [6] came to 78.4%. The viability at 24 h, 0.1 µM in data set [7] is 96.8%. The viability at 24 h, 0.5 µM in data set [8] stood at 98.8%. Further, in data set [9], the viability at 24 h, 1 µM was determined as 96.8%. Moreover, in data set [10], the viability at 24 h, 2 µM is 96.1%. Moreover, the viability at 24 h, 5 µM in data set [11] turned out to be 94.5%. Further, the viability at 24 h, 10 µM in [12] stood at 91.1%.
Regarding `COc1cc2c(cc1OC)C(Cc1ccc(O)cc1)NCC2` (configuration not stated), the concentration for half-maximal inhibition (IC50) against Acetylcholinesterase [1] was above 100 µM; at Cholinesterase [2] it was 39.7 µM; at Acetylcholinesterase [4], above 100 µM; on Cholinesterase [5] it was 46.8 µM. Also, in data set [6], the inhibition came to 36%.
As to `COc1cc2c(cc1OC)C(Cc1ccc(OCCCCCCN3CCC(O)CC3)cc1)NCC2` (configuration not stated), the IC50 is 13.3 µM against Acetylcholinesterase [1], 14.2 µM at Cholinesterase [2], 9.59 µM against Acetylcholinesterase [4] and 23.7 µM against Cholinesterase [5]. In addition, the Ratio IC50 came to 1.07 in data set [3] and 2.47 in the data set filed under Homo sapiens. Also, the inhibition in [6] came out at 62.1%.
Consider `CCN(CC)CCCCCCCOc1ccc(CC2NCCc3cc(OC)c(OC)cc32)cc1` (configuration not stated), for which the IC50 was 4.67 µM on Acetylcholinesterase [1] and 9.13 µM against Cholinesterase [2]. For the same molecule, the Ratio IC50 in data set [3] was determined as 1.96. The inhibition in [6] amounted to 43.9%.
On to `COc1cc2c(cc1OC)C(Cc1ccc(OCCCCCCN3CCOCC3)cc1)NCC2` (configuration not stated), for which the IC50 was determined as 28.6 µM on Acetylcholinesterase [1], 13 µM against Cholinesterase [2], 35.5 µM on Acetylcholinesterase [4] and 10.6 µM against Cholinesterase [5]. Also, the figures for the Ratio IC50 (in data set [3]; in the data set filed under Homo sapiens) were 0.45 and 0.29, respectively. For the same molecule, the inhibition in data set [6] turned out to be 57.4%.
As to `CCN(CC)CCCOc1ccc(CC2NCCc3cc(OC)c(OC)cc32)cc1` (configuration not stated), the IC50 came out at 13.2 µM at Acetylcholinesterase [1] and 20.8 µM at Cholinesterase [2]. The Ratio IC50 in data set [3] was 1.57. Besides, the inhibition in data set [6] worked out at 41.1%.
Taken in the same sequence, the figures for `CCN(CC)CCCCOc1ccc(CC2NCCc3cc(OC)c(OC)cc32)cc1` (configuration not stated) were 7.58 µM, 15.3 µM, 2.02 and 47.3%.
With `COc1cc2c(cc1OC)C(Cc1ccc(OCCCCCCN(C)C)cc1)NCC2` (configuration not stated), the IC50 turned out to be 3.14 µM against Acetylcholinesterase [1], 8.65 µM against Cholinesterase [2], 7.13 µM at Acetylcholinesterase [4] and 3.43 µM against Cholinesterase [5]. Further, the values for the Ratio IC50 (in data set [3]; in the data set filed under Homo sapiens) were 2.75 and 0.48, respectively. The inhibition in data set [6] was 55.3%.
With `COc1cc2c(cc1OC)C(Cc1ccc(OCCCCCCN3CCN(Cc4ccccc4)CC3)cc1)NCC2` (configuration not stated), the concentration for half-maximal inhibition (IC50) on Acetylcholinesterase [1] is 53.5 µM; against Cholinesterase [2], 10.5 µM; against Acetylcholinesterase [4], 5.59 µM; at Cholinesterase [5], 21.7 µM. In addition, the values for the Ratio IC50 (in [3]; in the data set filed under Homo sapiens) were 0.2 and 3.88, respectively. In addition, the inhibition in data set [6] stood at 61.4%.
Take `COc1cc2c(cc1OC)C(Cc1ccc(OCCCCCCN3CCN(c4ccccc4)CC3)cc1)NCC2` (configuration not stated): the IC50 at Acetylcholinesterase [1] came out at 17.1 µM; on Cholinesterase [2], 8.78 µM; at Acetylcholinesterase [4], 16.3 µM; on Cholinesterase [5] it was 12.9 µM. Moreover, the Ratio IC50 in data set [3] worked out at 0.51. Moreover, in [6], the inhibition worked out at 65.8%.
With `CCN(CC)CCCCCCCCOc1ccc(CC2NCCc3cc(OC)c(OC)cc32)cc1` (configuration not stated), the IC50 came out at 6.33 µM against Acetylcholinesterase [1] and 20.1 µM on Cholinesterase [2]. Moreover, the Ratio IC50 in data set [3] was found to be 3.17. The inhibition in data set [6] was determined as 39.6%.
Consider `COc1cc2c(cc1OC)C(Cc1ccc(OCCCCCCN3CCCC3)cc1)NCC2` (configuration not stated), for which the concentration for half-maximal inhibition (IC50) at Acetylcholinesterase [1] was determined as 1.28 µM; against Cholinesterase [2], 2.34 µM; on Acetylcholinesterase [4] it was 2.98 µM; against Cholinesterase [5] it was 2.27 µM. Further, the Ratio IC50 in data set [3] came out at 2.05; in the data set listed under Homo sapiens, 0.76. The inhibition in data set [6] was 69%.
For `CCCCN(CCCC)CCCCCCOc1ccc(CC2NCCc3cc(OC)c(OC)cc32)cc1` (configuration not stated), the 50% inhibitory concentration (IC50) against Acetylcholinesterase [1] stood at 3.43 µM; against Cholinesterase [2], 3.46 µM; against Acetylcholinesterase [4] it was 3.85 µM; at Cholinesterase [5] it was 6.02 µM. Also, the figures for the Ratio IC50 (in data set [3]; in the data set filed under Homo sapiens) were 1.01 and 1.56, respectively. Besides, in data set [6], the inhibition is 51.4%.
On to `CCN(CC)CCCCCOc1ccc(CC2NCCc3cc(OC)c(OC)cc32)cc1` (configuration not stated), for which the IC50 on Acetylcholinesterase [1] is 7.02 µM; against Cholinesterase [2] it was 10.3 µM. Also, in data set [3], the Ratio IC50 is 1.46. Moreover, the inhibition in data set [6] came to 34.3%.
`COc1cc2c(cc1OC)C(Cc1ccc(OCCCCCCN3CCCCC3)cc1)NCC2` (configuration not stated): the IC50 amounted to 1.14 µM against Acetylcholinesterase [1], 2.51 µM against Cholinesterase [2], 2.14 µM against Acetylcholinesterase [4] and 3.25 µM on Cholinesterase [5]. Moreover, the figures for the Ratio IC50 (in data set [3]; in the data set filed under Homo sapiens) were 1.96 and 1.69, respectively. In data set [6], this molecule came in with an inhibition of 76.4%.
Consider `COc1cc2c(cc1OC)C(Cc1ccc(OCCCCCCN3CCC(O)(Cc4ccccc4)CC3)cc1)NCC2` (configuration not stated), for which the IC50 was found to be 41.7 µM at Acetylcholinesterase [1], 12.8 µM against Cholinesterase [2], 39.6 µM against Acetylcholinesterase [4] and 15.9 µM against Cholinesterase [5]. Besides, the Ratio IC50 in data set [3] worked out at 0.31; in the data set filed under Homo sapiens, 0.4. For the same molecule, in [6], the inhibition was 62.7%.
With `COc1cc2c(cc1OC)C(Cc1ccc(OCCCCCCN3CCCC3C)cc1)NCC2` (configuration not stated), the IC50 against Acetylcholinesterase [1] worked out at 1.34 µM; against Cholinesterase [2], 3.35 µM; on Acetylcholinesterase [4], 4.5 µM; against Cholinesterase [5], 6.42 µM. Moreover, the Ratio IC50 in data set [3] is 2.5; in the data set filed under Homo sapiens it was 1.43. This molecule displayed an inhibition in data set [6] of 72.3%.

As usually defined, the IC50 is the concentration needed to halve the response being measured. Lower therefore signals greater potency in that assay. For orientation: inhibition means how much of the control response was suppressed.
